Assay results published in PubChem BioAssay AID210 (DTP/NCI, 2004).
Values joined by “and” are separate entries in the source; they are usually repeats but may differ in a detail not shown here. Identical values can stand only once. Toxic doses and inconclusive results are not listed. The calls were made as follows: active = survival T/C of 150% or more; inactive = T/C below 125% in these data.

Tested on: CD2F1 mice, ip Colon 26 adenocarcinoma, median survival T/C
Test: NCI In Vivo Anticancer Drug Screen. Data for tumor model Colon 26 Adenocarcinoma (intraperitoneal) in CD2F1 (CDF1) mice
Details: endpoint: median survival time, higher = longer survival
Method: The antitumor activity of compounds was measured in mice bearing transplantable tumors. Survival or tumor size were measured and the results are expressed as the measurement made in the treated group (T) divided by the measurement made in the vehicle treated control group (C). The tumor model used in this assay is Colon 26 Adenocarcinoma (intraperitoneal) in CD2F1 (CDF1) mice

[1] = dose: 12.5 mg/kg/injection, schedule: Q04DX003 (ip), vehicle: saline with Tween-80
[2] = dose: 25.0 mg/kg/injection, schedule: Q04DX003 (ip), vehicle: saline with Tween-80
[3] = dose: 50.0 mg/kg/injection, schedule: Q04DX003 (ip), vehicle: saline with Tween-80
[4] = dose: 100.0 mg/kg/injection, schedule: Q04DX003 (ip), vehicle: saline with Tween-80
[5] = dose: 200.0 mg/kg/injection, schedule: Q04DX003 (ip), vehicle: saline with Tween-80

Measured: T/C

CCSC(=O)N1c2ccc(OC)cc2C=CC1C#N (stereo unspecified)
inactive: [1] 106 % of control | [2] 104 % of control | [3] 110 % of control | [4] 107 % of control | dose: 175.0 mg/kg/injection, schedule: Q04DX002 (ip), vehicle: saline with Tween-80 110 % of control | [5] 109 % of control | dose: 350.0 mg/kg/injection, schedule: Q04DX002 (ip), vehicle: saline with Tween-80 124 % of control | dose: 400.0 mg/kg/injection, schedule: Q04DX003 (ip), vehicle: saline with Tween-80 115 % of control | dose: 700.0 mg/kg/injection, schedule: Q04DX002 (ip), vehicle: saline with Tween-80 100 % of control | dose: 1400.0 mg/kg/injection, schedule: Q04DX002 (ip), vehicle: saline with Tween-80 98 % of control

Cc1ccc(S(=O)(=O)N/N=C/C(=O)O)cc1
active: [1] 174 % of control | [2] 177 % of control | [3] 212 % of control | [4] 196 % of control | [5] 193 % of control

C[C@@]1(CO)[C@@H](O)CC[C@@]2(C)[C@H]1CC[C@H]1C[C@@H]3CC12CC[C@]3(O)CO
inactive: dose: 12.5 mg/kg/injection, schedule: Q04DX002 (ip), vehicle: distilled water + Tween-80 103 % of control | dose: 25.0 mg/kg/injection, schedule: Q04DX002 (ip), vehicle: distilled water + Tween-80 109 % of control | dose: 50.0 mg/kg/injection, schedule: Q04DX002 (ip), vehicle: distilled water + Tween-80 95 % of control | dose: 100.0 mg/kg/injection, schedule: Q04DX002 (ip), vehicle: distilled water + Tween-80 109 % of control | dose: 200.0 mg/kg/injection, schedule: Q04DX002 (ip), vehicle: distilled water + Tween-80 91 % of control | dose: 400.0 mg/kg/injection, schedule: Q04DX002 (ip), vehicle: distilled water + Tween-80 116 % of control

Nc1ccc2nc3ccc(N)cc3[n+](-c3ccccc3)c2c1
inactive: dose: 4.0 mg/kg/injection, schedule: Q04DX003 (ip), vehicle: saline 121 % of control | dose: 8.0 mg/kg/injection, schedule: Q04DX003 (ip), vehicle: saline 120 % of control | dose: 16.0 mg/kg/injection, schedule: Q04DX003 (ip), vehicle: saline 120 % of control

O=c1n(CC2CO2)c(=O)n(CC2CO2)c(=O)n1CC1CO1 (stereo unspecified)
active: dose: 25.0 mg/kg/injection, schedule: Q04DX003 (ip), vehicle: saline 237 % of control | dose: 40.0 mg/kg/injection, schedule: Q04DX003 (ip), vehicle: saline 292 % of control | dose: 50.0 mg/kg/injection, schedule: Q04DX003 (ip), vehicle: saline 237 % of control and 292 % of control | dose: 60.0 mg/kg/injection, schedule: Q04DX003 (ip), vehicle: saline 292 % of control | dose: 100.0 mg/kg/injection, schedule: Q04DX003 (ip), vehicle: saline 193 % of control and 237 % of control | dose: 200.0 mg/kg/injection, schedule: Q04DX003 (ip), vehicle: saline 237 % of control and 292 % of control | dose: 300.0 mg/kg/injection, schedule: Q04DX003 (ip), vehicle: saline 292 % of control | dose: 400.0 mg/kg/injection, schedule: Q04DX003 (ip), vehicle: saline 213 % of control and 292 % of control

CCC1(O)CC(OC2CC(N(C)C)C(OC3CC(O)C(OC4CCC(=O)C(C)O4)C(C)O3)C(C)O2)c2c(cc3c(c2O)C(=O)c2c(O)ccc(O)c2C3=O)C1C(=O)OC (stereo unspecified)
inactive: dose: 0.38 mg/kg/injection, schedule: Q04DX003 (ip), vehicle: saline with Tween-80 103 % of control | dose: 0.75 mg/kg/injection, schedule: Q04DX003 (ip), vehicle: saline with Tween-80 117 % of control | dose: 1.5 mg/kg/injection, schedule: Q04DX003 (ip), vehicle: saline with Tween-80 123 % of control | dose: 3.0 mg/kg/injection, schedule: Q04DX003 (ip), vehicle: saline with Tween-80 108 % of control
